In brackets after ≈: the same amount, converted by molar mass. Where two headings read alike, the source gives them in different places.
What was measured:
[1] = Cyclic voltammetry, 10 mM analyte in 0.5M LiPF6 in PC (FIG. 1, Table 1); assay type: physicochemical; details: scan rate 100 mV/s
Experimental: FIG. 1 is a graph showing cyclic voltammograms of DMeOEPT, DMeOMEPT, and DMeOMEEPT, performed with 10 mM analyte in 0.5M LiPF6 in PC at a scan rate of 100 mV/s.

[2] = Solubility in electrolyte formulations; assay type: physicochemical; details: for solubility compared to the N-ethyl derivative: while retaining stable redox chemistry
From the text: Additionally, in some embodiments, the N-substituted phenothiazine compounds described herein provide increased solubility in electrolyte formulations as compared to existing compounds, such as 2,5-di-tert-butyl-1,4-bis(2-methoxyethoxy)benzene (DBBB). In one embodiment, the glyme substituents provide increased solubility in electrolyte formulations as compared to other derivatives. […] In another embodiment, this solubility in organic solvents permits the use of renewable earth-abundant elements.
In some embodiments, the N-substituted phenothiazine compounds described herein provide a multi-electron donor including high stability and solubility in catholyte formulations. In another embodiment, the catholyte material provides a multi-electron donor that retains high chemical stability when charged. […] For example, when formulated at its solubility limit, diglyme-dimethoxyphenothiazine may provide approximately 5 times the volumetric energy of DBBB, which has an energy density of 10 Ah/L when formulated as a catholyte, and is limited by its solubility (0.4M) and redox chemistry, acting as a single electron donor.

[3] = Oxidation potentials vs. ferrocenium/ferrocene in 0.5M TEATFSI/acetonitrile; assay type: physicochemical
From the text: With regard to Compound IV, oxidation potentials are 0.035 V and 0.625 V vs. ferrocenium/ferrocene in 0.5M TEATFSI/acetonitrile.

[4] = DBBB formulated as a catholyte; cited from earlier work

| Structure (SMILES) | 1st Eox vs. Li (half-wave first oxidation potential) [1] | 2nd Eox vs. Li (half-wave second oxidation potential) [1] | solubility [2] | melting point | oxidation potential (first) vs. ferrocenium/ferrocene [3] | oxidation potential (second) vs. ferrocenium/ferrocene [3] | solubility [4] | solubility compared to the N-ethyl derivative [2] |
| --- | --- | --- | --- | --- | --- | --- | --- | --- |
| CCN1c2ccc(OC)cc2Sc2cc(OC)ccc21 [Compound I, 3,7-dimethoxy-N-ethyl-phenothiazine] | 3.38 V | 3.94 V | about 100 mM | 115 to 116 °C | – | – | – | – |
| CCN1c2ccc(OCCOCCOC)cc2Sc2cc(OCCOCCOC)ccc21 [Compound IV] | – | – | – | – | 0.035 V | 0.625 V | – | – |
| COCCOc1cc(C(C)(C)C)c(OCCOC)cc1C(C)(C)C [DBBB, 2,5-di-tert-butyl-1,4-bis(2-methoxyethoxy)benzene] | – | – | – | – | – | – | 400 mM (≈ 135 mg/mL) | – |
| COCCN1c2ccc(OC)cc2Sc2cc(OC)ccc21 [II, 3,7-dimethoxy-N-methoxyethyl-phenothiazine] | 3.42 V | 3.96 V | – | 108 to 110 °C | – | – | – | higher solubility |
| COCCOCCN1c2ccc(OC)cc2Sc2cc(OC)ccc21 [III, 3,7-dimethoxy-N-((2-methoxy)ethoxy)ethyl-phenothiazine] | 3.41 V | 3.98 V | – | – | – | – | – | higher solubility |

Reference: patent publication US10954201B2, “Two-electron donating phenothiazines and use thereof” (University of Kentucky Research Foundation, priority 2016, dated 2021)
